Values belong to the compound of their own block, whether it stands above or below them.
Legend:
human glioblastoma cells = test: Bioluminescence substrate permeation in luciferase-expressing glioblastoma cells; format: cell-based; conditions: TTFields exposure
U87-MG/eGFP-fLuc cells = test: Reversibility of TTFields-induced uptake; format: cell-based, human; conditions: TTFields 24 h vs none vs TTFields 24 h followed by no TTFields 24 h
Protocol: To assess the reversibility of the effect of TTFields on cancer cells, U87-MG/eGFP-fLuc cells were subjected to three conditions: (1) No TTFields exposure, standard cell culture conditions (37° C., […], 5% CO2), (2) TTFields exposure for 24 h and (3) TTFields exposure for 24 h followed by no TTFields exposure for 24 h. The readouts of BLI, PpIX fluorescence (5-ALA product) and Dextran-FITC (4 kDa) fluorescence were acquired. All experimental conditions were done in triplicate. […] Here, NS=not significant; BLI=bioluminescent imaging; eGFP=enhanced green fluorescence protein; fLuc=firefly luciferase; 5-ALA=5 aminolevulinic acid; FITC=fluorescein isothiocyanate; PpIX=protoporphyrin IX; and FL=fluorescence.
In vitro tumor treating field apparatus: The coverslips were transferred to a ceramic dish of the Inovitro™ system, which in turn was mounted onto Inovitro™ base plates (Novocure Ltd., Haifa, Israel). Tumor treating fields at 200 kHz (1-4 V/cm) were applied through an Inovitro™ power generator. Incubator ambient temperatures spanned 20-27° C. with a target temperature of 37° C. in the ceramic dishes upon application of the TTFields. Duration of TTFields exposure lasted anywhere from 0.5 to 72 h, after which coverslips were removed and processed for the appropriate bioassays (see below). […]

BBB of rat brain [1] = test: Evans Blue accumulation in rat brain after alternating electric fields; format: in vivo; conditions: 100 kHz fields 72 h vs sham heat/control
Text: A set of in vivo experiments on rats was also run to quantify the increase in vessel permeability caused by exposure to the alternating electric fields. These experiments used Evans Blue (EB) dye, which is an azo dye that has a very high affinity for serum albumin (molecule size ˜69 kDa). Because of its large molecule size, serum albumin will ordinarily not be able to get past the BBB.
This was accomplished by shaving each rat's head, positioning a first pair of capacitively coupled electrodes on the top and bottom of the rat's head, and positioning a second pair of capacitively coupled electrodes on the left and right sides of the rat's head. A 100 kHz AC voltage was then applied between the top and bottom electrodes for 1 second, followed by a 100 kHz AC voltage applied between the right and left electrodes for 1 second, in a repeating sequence.
Under the conditions indicated in Table 1 and for the times indicated on Table 1, EB was injected intravenously into the tail vein under anesthesia (Once injected, EB immediately binds to Albumin), and the EB was allowed to circulate for 2 hours in all cases. The following steps were then performed: (a) intracardiac perfusion with saline; (b) brains are sliced in four pieces with a brain slicer; (c) pieces were photographed to localize staining and weighted; (d) EB extraction after tissue homogenization with TCA 50% (1:3) and centrifuge and (e) EB quantification at 610 nm. Results are given as μg EB per g tissue.
During the experiment, two animals from group 2 and one animal from group 4 were excluded (disrupted treatment, failure to inject EB into the tail vein). There were no differences between the animals treated with alternating electric fields (groups 1 and 2) and therefore these animals were grouped together. Similarly, there were no differences between sham heat and control animals (groups 3 and 4) and therefore these animals were grouped together.
EB accumulation in these four specific sections was then measured. In addition, a computer simulation was performed to determine the field strength in each of these four sections. […]

BBB of rat brain [2] = test: DCE-MRI of gadolinium contrast agent accumulation in rat brain; format: in vivo; conditions: for contrast agent accumulation in the brain tissue after recovery: 100 kHz fields 72 h followed by 96 h without fields
Protocol: Yet another set of in vivo experiments was performed using Dynamic Contrast Enhanced MRI (DCE-MRI) with intravenous injection of Gadolinium contrast agent (Gd-DTPA, Magnetol, MW 547). In these experiments, test rats were treated with 100 kHz alternating electric fields for 72 h, and control rats were not treated with alternating electric fields for the same period of time. After this 72 h period, the alternating electric field was turned off, the rats were anesthetized, and a series of 60 Tlw MRI scans (each of the scans having a duration of 28 seconds) was acquired. The gadolinium contrast agent was injected into the rat's tail vein during the 7th of these 60 scans.
The image analysis for each rat included (1) determining a baseline for each voxel by calculating the mean of the first six Tlw MRI scans for each voxel (i.e., the scans prior to the injection of the gadolinium); (2) computing voxel by voxel, the percent signal change (i.e., gadolinium accumulation) over time relative to the baseline; (3) segmenting the brain into anterior, middle, and posterior segments; (4) generating for each of the three segments the mean percent signal change with respect to the baseline over all the voxels in the respective segment and then (5) averaging 4 consecutive time points (i.e. 4 scans) together. Finally, the data from all of the rats within any given group were averaged together.
To test whether this increase in permeability of the BBB was temporary, the same test conditions were repeated, but followed with an additional 96 hours without alternating electric fields. After this 96 hour period, a series of 60 Tlw MM scans (each of the scans having a duration of 28 seconds) was acquired using the same procedure described above (including the gadolinium injection). The results of this portion of the DCE-MM experiment for each of the three segments of the brain are also depicted in FIG. 8. […] From this we can conclude that the permeability of the BBB returns to normal after the alternating electric fields are discontinued.
The relationship between the intensity of the alternating electric fields and the impact of those fields on BBB integrity and permeability was also apparent from in vivo experiments in rats using serial dynamic contrast-enhanced (DCE) MM to measure gadolinium (Gd) uptake after 100 kHz alternating electric fields were applied for 72 hours. The rat's brains were segmented into three regions (anterior, posterior, and middle), and simulations of the alternating electric fields delivery to those three regions yielded field strengths of 1.5±0.6 V/cm RMS, 2.1±1.2 V/cm RMS, and 2.7±1.7 V/cm RMS respectively. […] These findings also indicate that the cells' response to alternating electric fields depends on the intensity of the fields.

GBM39/Luc cells = test: Drug sensitivity / synergy with TTFields; format: cell-based, human
GBM F98 cells = test: Paclitaxel plus alternating electric fields in orthotopic glioblastoma rats; format: in vivo, rat
Protocol: Another set of in vivo experiments was performed to determine whether paclitaxel (PTX, which is a drug that ordinarily cannot traverse the BBB) can make it across the BBB when the subject is treated with alternating electric fields. In one of these experiments, glioblastoma was induced in rats by injecting them orthotopically with GBM F98 cells on day 0 of the experiment. On day 6, a first set of MRI scans of each rat's brains was obtained. Alternating electric fields at 100 kHz were applied to all the rats on days 7 through 10. On day 10 (i.e., after applying the fields for 72 hours), some of the rats were injected i.p. with 25 mg/kg PTX, while other rats were not injected. Subsequently, on day 13 (i.e., 3 days post PTX administration), a second set of MRI scans of each rat's brain was obtained. Ki67 (red) and DAPI (blue) staining was evaluated for the test and control rats.
A similar experiment using a 15 mg/kg dose of PTX was performed, except that instead of quantifying the Ki67/DAPI ratio on day 13, Mill scans and post mortem tissue sections were used to determine the fold increase of the tumor volume on day 15. The tumor volumes from these experiments are depicted in FIG. 11. […] And the inventors have concluded that the alternating electric fields allow the PTX (or metabolites thereof) to cross the BBB.

firefly luciferase = molecular target: T1, firefly luciferase (Photinus pyralis, UniProt P08659); test: Activity of purified firefly luciferase under TTFields; format: biochemical
T1 construct: purchased Sigma Aldrich Inc (St. Louis, Mo.) SRE0045-2MG
T1 sequence (P08659 whole entry): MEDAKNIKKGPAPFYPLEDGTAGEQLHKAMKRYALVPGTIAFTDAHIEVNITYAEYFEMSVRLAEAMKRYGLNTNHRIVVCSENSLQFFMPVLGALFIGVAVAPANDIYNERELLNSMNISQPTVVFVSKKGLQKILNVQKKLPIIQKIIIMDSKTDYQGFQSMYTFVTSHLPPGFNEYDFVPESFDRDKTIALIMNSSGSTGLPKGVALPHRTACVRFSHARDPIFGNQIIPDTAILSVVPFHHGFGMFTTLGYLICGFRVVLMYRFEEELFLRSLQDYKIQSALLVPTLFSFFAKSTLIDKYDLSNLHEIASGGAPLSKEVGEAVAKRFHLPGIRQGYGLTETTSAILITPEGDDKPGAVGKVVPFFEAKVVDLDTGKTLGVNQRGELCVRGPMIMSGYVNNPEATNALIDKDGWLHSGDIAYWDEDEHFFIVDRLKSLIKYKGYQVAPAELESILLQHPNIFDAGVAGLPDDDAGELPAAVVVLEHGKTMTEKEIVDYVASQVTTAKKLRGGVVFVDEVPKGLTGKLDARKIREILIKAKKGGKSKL
Protocol: U87-MG/eGFP-fLuc cells were seeded on Thermanox glass coverslips, allowed to settle and grow, and then subjected to either TTFields or no TTFields. […] This increase in BLI occurred as early as 30 minutes after commencement of TTFields and continued to 24 h of TTFields exposure. […] Without being bound by this theory, it is believed that the elevation in bioluminescence was not due to a direct effect of TTFields on firefly luciferase activity because exposure of purified firefly luciferase to 200 kHz TTFields led to over a 1000-fold loss in enzymatic activity 60 minutes after initiation of TTFields.
FIG. 16B depicts the effect of TTFields on eGFP fluorescence in U87-MG/eGFP-fLuc cells observed from time course of representative images (not shown) for TTFields-exposed vs. TTFields-unexposed U87-MG/eGFP-fLuc. […] More specifically, FIG. 16C depicts the effect of TTFields on the fLuc bioluminescence (fLuc-BLI) over eGFP fluorescence (eGFP-FL) ratio for U87-MG/eGFP-fLuc cells as a function of length of TTFields exposure; and FIG. 16D depicts the effect of TTFields exposure vs. non-exposure on the fLuc-BLI/eGFP-FL ratio as a function of TTFields exposure time (hours).

Compound: O=C(O)[C@H]1CSC(c2nc3ccc(O)cc3s2)=N1 [D-luciferin]
permeation of luciferase substrate through the plasma membrane (human glioblastoma cells): increased permeation | reversibility of increased uptake (U87-MG/eGFP-fLuc cells): reversibly increase uptake

EB accumulation in sections 1, 2 (frontal cerebrum) (BBB of rat brain [1]; EB i.v., 2 h circulation): statistically significant increase | average EB accumulation in the rat brain, averaged over all four sections (BBB of rat brain [1]; p<0.05): higher accumulation
Compound: Cc1cc(-c2ccc(/N=N/c3ccc4c(S(=O)(=O)O)cc(S(=O)(=O)O)c(N)c4c3O)c(C)c2)ccc1/N=N/c1ccc2c(S(=O)(=O)O)cc(S(=O)(=O)O)c(N)c2c1O [EB, Evans Blue]
EB accumulation in posterior sections (3, 4) (BBB of rat brain [1]; EB i.v., 2 h circulation): smaller increase (that was not statistically significant)

Compound: O=C([O-])CN(CCN(CC(=O)[O-])CC(=O)O)CCN(CC(=O)[O-])CC(=O)O.[Gd+3] [Gd-DTPA]
Gd accumulation in the anterior part of the brain (BBB of rat brain [2]; 100 kHz fields 72 h): no significant Gd accumulation | signal enhancement in the middle and posterior brains (BBB of rat brain [2]; 100 kHz fields 72 h, about 10 minutes after Gd injection, vs control rats): significantly increased signal enhancement | contrast agent accumulation in the brain tissue after recovery (BBB of rat brain [2]; listed as Gd): no significant accumulation | contrast agent accumulation in the brain tissue after recovery (BBB of rat brain [2]; listed as contrast agent): not significantly different | contrast agent accumulation in the brain tissue (BBB of rat brain [2]; 100 kHz fields 72 h vs control rats): significantly higher | spatial distribution of Gd enhancement (BBB of rat brain [2]; test rats, 20 to 23 minutes post-contrast administration): distributed in the whole brain

Compound: CCc1c2c(nc3ccc(OC(=O)N4CCC(N5CCCCC5)CC4)cc13)-c1cc3c(c(=O)n1C2)COC(=O)[C@]3(O)CC [Irinotecan]
synergy of TTFields plus drug (GBM39/Luc cells): synergy was found | sensitivity of cells to drug (GBM39/Luc cells; TTFields for 3 days vs no TTFields): improves the sensitivity

Compound: CC(=O)O[C@H]1C(=O)[C@@]2(C)[C@H]([C@H](OC(=O)c3ccccc3)[C@]3(O)C[C@H](OC(=O)[C@H](O)[C@@H](NC(=O)c4ccccc4)c4ccccc4)C(C)=C1C3(C)C)[C@]1(OC(C)=O)CO[C@@H]1C[C@@H]2O [PTX, paclitaxel]
fold increase of the tumor volume (GBM F98 cells; 15 mg/kg PTX + 100 kHz fields vs heat only, heat+PTX, fields only, day 15): significant decrease in the fold tumor volume increase | Ki67/DAPI ratio (cell proliferation in the GBM tumor) (GBM F98 cells; 25 mg/kg PTX i.p. after 72 h 100 kHz fields vs fields only, day 13): significant decrease in cell proliferation

Compound: Oc1ccc(Cc2nc3c(Cc4ccccc4)nc(-c4ccc(O)cc4)cn3c2O)cc1 [coelenterazine]
permeation of luciferase substrate through the plasma membrane (human glioblastoma cells): increased permeation

Compound: firefly luciferase: purified firefly luciferase enzyme
loss in enzymatic activity (firefly luciferase; 200 kHz TTFields, 60 minutes after initiation): > 1000 fold | activity of purified firefly luciferase (firefly luciferase; TTFields vs no TTFields, p<0.01): significantly decreased activity

Reference: patent US20230009366A1, “Using Alternating Electric Fields at Different Frequencies to Increase Permeability of the Blood Brain Barrier and also to Provide Other Benefits” (Novocure GmbH, priority 2021, published 2023)
